One series addresses T1, PD-1/PD-L1 (Homo sapiens, UniProt Q9NZQ7).
T1 construct: unspecified kit tag (tag1 or tag2, recognised by the detection antibodies); purchased CisBio 64CUS000C-1
Description: Homogeneous Time-Resolved Fluorescence (HTRF) PD-1/PD-L1 binding assay. Conditions: CisBio kit. Here is the method: Homogenouse Time-Resolved Fluorescence (HTRF) binding assay was used to determine the binding activity of the compound of the present disclosure to PD-1/PD-L1.
The purchased kit (CisBio, #64CUS000C-1) contained the reagents required for experiments such as PD-1, PD-L1, anti-tagl-Eu, Anti-tag2-XL665, Dilute Buffer and Detection Buffer.
1. The compound was formulated to 10 concentrations with a three-fold concentration gradient with 100% DMSO.
2. The solution of the compound in DMSO was added to Dilute Buffer, and mixed evenly and then transferred to a 96-well plate.
3. PD-L1 was diluted with Dilute Buffer and added to the 96-well plate above.
4. PD-1 was diluted with Dilute Buffer, then added to the 96-well plate above and incubated at room temperature for 30 minutes.
5. One portion of anti-tag1-Eu and one portion of anti-tag2-XL665 were added to Detection Buffer, mixed evenly and transferred to the 96-well plate above.
6. The mixed solution in the 96-well plate were incubated at room temperature for 1 to 24 hours.
7. HTRF values were read by Envision.
(In general: Time-resolved FRET reads energy transfer from a long-lived donor to a nearby acceptor.)

Series [1] can be described thus: Pharmacokinetic experiment in mice (iv and oral gavage). Conditions: mouse, whole blood; CD1 male mice; tail vein 2 mg/kg and oral gavage 10 mg/kg. The class given is in vivo. An excerpt: Glipizide (molecular formula was C21H27N5O4S, molecular weight was 445.5 g/mol, Analytical Reagent) purchased from Sigma-Aldrich (U.S.A.), was used as the internal standard for analysis. Methanol, acetonitrile and formic acid (HPLC grade) were purchased from Sigma-Aldrich (U.S.A.), and pure water was purchased from Hangzhou Wahaha Group Co., Ltd. (Hangzhou, China). Other chemical reagents were all analytical reagents.
CD1 male mice, six per group, 6-7 weeks old, 29-31 g, were purchased from LC Laboratory Animal Co. LTD. Before the experiment, the animals should be kept for at least 3 days to adapt to the environment. Throughout the experiment, the animals were required to fast overnight, and allowed to drink water freely during the period, and the surviving animals resumed feeding 4 hours after administration.
1. The compound was formulated into a solution with a concentration of 0.4 mg/mL with 10% DMSO, 10% Solutol HS 15 and 80% Saline.
2. The above prepared solution was administered to 3 mice by tail vein injection (compound dosage was 2 mg/kg), and was administered to another 3 mice by oral gavage (compound dosage was 10 mg/kg) simultaneously.
3. Approximately 30 μL of blood was collected from each of the above 6 mice at 5 minutes, 15 minutes, 30 minutes, 1 hour, 2 hours, 4 hours, 8 hours and 24 hours after administration into the EDTA-K2 anticoagulation tube (set on wet ice), and 20 μL of blood was immediately diluted with 60 μL of water, and then put in the refrigerator at −70° C. for long-term storage until the sample was analyzed.
4. 20 μL of the above solution was transfered into a 96-well deep well sample plate, and 150 μL of glipizide internal standard acetonitrile solution (the concentration was 100 ng/mL) was added, vortexed for 10 min, and centrifuged at […] for 10 min 1 μL of the supernatant was taken for LCMSMS analysis.
5. Based on the drug concentration-time data, WinNonlin 6.4 software (USA) was used to calculate the pharmacokinetic parameters of the compound according to the non-compartment model.

Series [2] concerns colon cancer MC-38-hPD-L1. Description: In vivo pharmacodynamics in hPD-1 knock-in mouse colon cancer MC-38-hPD-L1 model. Further details: species or system C57BL/6-hPD-1 mice. The conditions noted are these: D19; for Tumor Volume: mean ± SEM. Here is the method:
In vivo pharmacodynamics study of PD-L1 antibody Durvalumab and compound 29 used singly or in combination in hPD-1 knock-in mouse colon cancer MC-38-hPD-L1 model
Antibody: PD-L1 antibody Imfinzi (Durvalumab), 120 mg/2.4 mL (50 mg/mL), Lot: 041E17C. Manufacturer: AstraZeneca, purchased from Hong Kong Mingchuang Pharmacy Co., Ltd., stored at 2-8° C.
Experimental animals: Human PD-1 transgenic mice, strain: C57BL/6-hPD-1 mice, 6-8 weeks, weighing 18-21 grams, female, 120 mice, purchased from GemPharmatech Co., Ltd.
Human PD-L1 gene was knocked into MC-38 cells (MC-38-hPD-L1 cells), MC-38 cells was adherent cultured in vitro in DMEM medium with 10% heat-inactivated fetal bovine serum and hygromycinB (final concentration […]) at 37° C. under 5% CO2.
Passage cultivation was conducted three times a week. The cells were collected and counted at the exponential growth phase. 100 μL 1×10^6 MC-38-hPD-L1 cells suspension was inoculated into the right dorsal subcutaneous of C57BL/6-hPD-1 mice. 6 days after inoculation, 60 tumor-bearing mice with transplanted tumor volume ranging from 31.49 mm^3-110.26 mm^3 were selected, the mice were randomly divided into 6 groups, with 10 in each group, according to the experimental plan, and administration was started on the same day.
Preparation of vehicle: 800 mL sterile water was measured and added to volumertic flask. Magnetic stirring was carried out to produce vortex on the liquid surface. An aqueous solution of 10% (w/v) Cremophor RH40+20% (w/v) SBE-β-CD was obtained by slow addition of 100 g Cremophor RH40, followed by 200 g SBE-β-CD, and water to fix the solution volume to 1000 mL with fully stirring.
Preparation of Compound 29 suspension: 150.92 mg compound 29 was weighed and 12.5 […] 10% (w/v) Cremophor RH40+20% (w/v) SBE-β-CD (hereinafter referred to as vehicle) aqueous solution was added. A suspension was with a concentration of 12.0 mg/mL was obtained by fully mixing with vortexing for 2 minutes and ultrasonic treatment for 30 minutes. 5.0 mL of the suspension of compound 29 with a concentration of 12.0 mg/mL was pipetted, and 5.0 mL of vehicle was added to the suspension. The suspension with a concentration of 6.0 mg/mL was obtained by fully mixing with vortexing for 1 minute and ultrasonic treatment for 5 minutes. 2.0 mL of the suspension of compound 29 with a concentration of 12.0 mg/mL was pipetted, and 6.0 mL of vehicle was added to the suspension. The suspension with a concentration of 3.0 mg/mL was obtained by fully mixing with vortexing for 1 minute and ultrasonic treatment for 5 minutes. The suspension of compound 29 was prepared once a day.
Preparation of PD-L1 antibody: […] of Durvalumab stock solution (concentration: 50 mg/mL) was pipetted and divided into 6 portions in 5 mL sterile centrifuge tube, with 6.0 mg in each portion, then the portions were stored in a 4° C. refrigerator for late use. Before administration, 0.12 mL of stock solution (concentration: 50 mg/mL) was pipetted, 2.88 mL of 0.9% sodium chloride solution was added to the stock solution. 3 mL of the solution of Durvalumab with a final concentration 2 mg/mL was obtained by shaking slightly and fully vortexing.
1) The mice in the vehicle control group were weighed and recorded in an electronic balance according to the number. The mice in the vehicle control group were administered by oral gavage with vehicle according to the weight twice a day with a capacity of 0.1 mL/10 g. The time for administration was about 20 s for each mouse, and about 5 minutes in total for each group of 10 mice. 2) The mice in the compound 29 (30 mg/kg) group were weighed and recorded in an electronic balance according to the number. The mice in this group were administered by oral gavage with the prepared Compound 29 suspension according to the weight twice a day with a dosage of 30 mg/kg and a capacity of 0.1 mL/10 g. The time for administration was about 20 s for each mouse, and about 5 minutes in total for each group of 10 mice. […]

Where “and” joins values, the source holds several entries; their conditions need not be identical. Identical values can stand only once.

T1 sequence (Q9NZQ7 19-238 limits assumed): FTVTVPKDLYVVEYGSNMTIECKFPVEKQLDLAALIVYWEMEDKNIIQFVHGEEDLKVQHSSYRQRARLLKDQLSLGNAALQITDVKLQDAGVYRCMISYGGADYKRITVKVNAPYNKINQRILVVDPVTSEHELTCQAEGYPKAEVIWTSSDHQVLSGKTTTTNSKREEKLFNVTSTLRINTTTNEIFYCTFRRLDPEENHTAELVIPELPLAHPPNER

The compound `Cc1c(/C=C/c2cc(CNC(CO)C(=O)O)ccc2C(F)(F)F)cccc1-c1ccccc1F` (stereo not shown) [Compound 13, (E)-2-(3-(2-(2′-fluoro-2-methylbiphenyl-3-yl)vinyl)-4-(trifluoromethyl)benzylamino)-3-hydroxypropanoic Acid] returned an IC50 on PD-1/PD-L1 of 13 nM. This compound also showed a bioavailability in series [1] of 16.1%.
`COc1cc(/C=C/c2cccc(-c3ccccc3)c2C)cc(OC)c1CN[C@](C)(CO)C(=O)O` gave a bioavailability in series [1] of 4.42%.
Turning to `Cc1c(/C=C/c2cc(CN[C@@](C)(CO)C(=O)O)ccc2C(F)(F)F)cccc1-c1ccccc1` [Compound 29, (S,E)-2-(3-(2-(2-methylbiphenyl-3-yl)vinyl)-4-(trifluoromethyl)benzylamino)-3-hydroxy-2-methylpropanoic Acid], the IC50 on PD-1/PD-L1 was 19 nM. In series [1], this compound yielded a bioavailability of 38.2%. Also, the “Tumor Volume” value is reported as 459.82 ± 58.24/D19 mm^3 in series [2] (30 mg/kg, PO, BID); 439.04 ± 51.23/D19 mm^3 in series [2] (60 mg/kg, PO, BID); 325.23 ± 38.59/D19 mm^3 in series [2] (120 mg/kg, PO, BID). Further, the “TGI (tumor inhibition rate)” value in series [2] (30 mg/kg, PO, BID, vs vehicle control) was 24.95/D19%; in series [2] (60 mg/kg, PO, BID, vs vehicle control) it was 29.06/D19%; in series [2] (120 mg/kg, PO, BID, vs vehicle control (max tumor inhibition rate of Compound 29)) it was 51.21% and 51.21/D19%.
In turn, `COc1cc(/C=C/c2cccc(-c3ccccc3)c2C)cc(OC)c1CN[C@@](C)(CO)C(=O)O` displayed a bioavailability in series [1] of 3.89%.
Turning to `Cc1c(/C=C/c2cc(CNC(C)(CO)C(=O)O)ccc2C(F)(F)F)cccc1-c1ccc2c(c1)OCCO2` (stereo not shown), in series [1], the bioavailability turned out to be 5.98%.
Turning to “Durvalumab: PD-L1 antibody Imfinzi (Durvalumab), 50 mg/mL, manufacturer AstraZeneca [reference compound]”, in series [2] (Durvalumab 20 mg/kg, IP, BIW), the “Tumor Volume” value is given as 341.19 ± 56.59/D19 mm^3. Further, the “TGI (tumor inhibition rate)” value in series [2] (Durvalumab 20 mg/kg, IP, BIW, vs vehicle control) is 48.17% and 48.17/D19%.
`Cc1c(/C=C/c2cc(CN[C@](C)(CO)C(=O)O)ccc2C(F)(F)F)cccc1-c1ccccc1` [Compound 27, (R,E)-2-(3-(2-(2-methylbiphenyl-3-yl)vinyl)-4-(trifluoromethyl)benzylamino)-3-hydroxy-2-methylpropanoic Acid] had a half-inhibitory concentration (IC50) at PD-1/PD-L1 of 18 nM. The bioavailability in series [1] came to 52.3%.
Take `COc1cc(/C=C/c2cccc(-c3ccccc3)c2C)cc(OC)c1CN[C@@H](CO)C(=O)O`: in series [1], the bioavailability stood at 3.08%.
At PD-1/PD-L1, `COc1ccc(-c2cccc(/C=C/c3cc(CNC(C)(CO)C(=O)O)ccc3C)c2C)cc1` (stereo not shown) [Compound 2, (E)-2-((3-(2-(4′-methoxy-2-methylbiphenyl-3-yl)vinyl)-4-methylbenzyl)amino)-3-hydroxy-2-methylpropanoic Acid] returned an IC50 of 3100 nM.
`Cc1c(/C=C/c2cc(CN[C@@](C)(CO)C(=O)O)ccc2C(F)(F)F)cccc1-c1ccc2cnoc2c1` [Compound 38, (S,E)-2-(3-(3-(benzo[d]isoxazol-6-yl)-2-methylstyryl)-4-(trifluoromethyl)benzylamino)-3-hydroxy-2-methylpropanoic Acid]: the IC50 on PD-1/PD-L1 was above 10000 nM.
The same measure, in the same setting: the value for `Cc1ccc(CNC(C)(CO)C(=O)O)cc1/C=C/c1cccc(-c2cccc(F)c2)c1C` (stereo not shown) [Compound 9] was 57 nM; that for `Cc1ccc(CN[C@@](C)(CO)C(=O)O)cc1/C=C/c1cccc(-c2ccc3c(c2F)OCCO3)c1C` [Compound 26, (S,E)-2-(3-(3-(5-fluoro-2,3-dihydrobenzo[b][1,4]dioxin-6-yl)-2-methylstyryl)-4-methylbenzylamino)-3-hydroxy-2-methylpropanoic Acid] was 20 nM.
The compound `Cc1c(/C=C/c2cc(CNC(C)(CO)C(=O)O)ccc2C(F)(F)F)cccc1-c1ccccc1F` (stereo not shown) [Compound 17, (E)-2-(3-(2-(2′-fluoro-2-methylbiphenyl-3-yl)vinyl)-4-(trifluoromethyl)benzylamino)-3-hydroxy-2-methylpropanoic Acid] displayed an IC50 on PD-1/PD-L1 of 20 nM.
On PD-1/PD-L1, `Cc1ccc(CNC(C)(CO)C(=O)O)cc1/C=C/c1cccc(-c2ccc(F)cc2)c1C` (stereo not shown) [Compound 7, (E)-2-(3-(2-(4′-fluoro-2-methylbiphenyl-3-yl)vinyl)-4-methylbenzylamino)-3-hydroxy-2-methylpropanoic Acid] returned an IC50 of 1400 nM.
On the same count and under the same terms, the value for `Cc1c(CCc2cc(CNC(C)C(=O)O)ccc2C(F)(F)F)cccc1-c1ccccc1` (stereo not shown) [Compound 22, 2-(3-(2-(2-Methylbiphenyl-3-yl)ethyl)-4-(trifluoromethyl)benzylamino) propanoic Acid] was 44 nM.

A word on the IC50: it is the point on the concentration scale where inhibition reaches its midpoint. Read a low IC50 as inhibition by little substance. The bioavailability is dose-corrected exposure relative to a reference, in per cent. A lower bioavailability goes with poor availability.

The values above are taken from patent publication US20220168268A1, “SMALL-MOLECULE INHIBITOR OF PD-1/PD-L1, PHARMACEUTICAL COMPOSITION THEREOF WITH PD-L1 ANTIBODY, AND APPLICATION OF SAME” (Guangzhou Maxinovel Pharmaceuticals Co., Ltd., priority 2019, published 2022).
